Experimental data from patent US8871767B2, “2-arylimidazo[1,2-B]pyridazine, 2-phenylimidazo[1,2-A]pyridine, and 2-phenylimidazo[1,2-A]pyrazine derivatives” (Hengrui (USA) Ltd., priority 2010, dated 2014).
Where two headings read alike, the source gives them in different places.

System: Hedgehog pathway activation (GLi-luciferase reporter) in Shh Light II reporter cells
Assay: Hedgehog pathway activation on Shh Light II reporter cells measured by luciferase activity
Assay type: cell-based
Details: hShh activation, read-out: Shh (IC50, inhibition of Hedgehog pathway activation)
In short: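 Shh Light II reporter cells carrying a hedgehog-responsive GLi-luciferase reporter were stimulated either with 500 nM SAG, a direct Smoothened agonist, or with conditioned media containing human Sonic Hedgehog (hShh). Test compounds were evaluated for blocking this pathway activation, quantified by luciferase activity. Cell viability was monitored in parallel with the Celltiter-Blue® assay.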

## Cc1ccc(-c2cn3nc(NCc4ccc(C(=O)NO)cc4)ccc3n2)cc1NC(=O)C(C)(C)C [compound 604]
Mus musculus, Shh Light II
  IC50: 157 nM

## Cc1ccc(-c2cn3nc(NC(=O)c4ccccn4)ccc3n2)cc1NC(=O)C(C)(C)C [compound 611]
Mus musculus, Shh Light II
  IC50: 49 nM

## CCOC(=O)C=Cc1cccc(C(=O)Nc2cc(-c3cn4nc(Cl)ccc4n3)ccc2C)c1 [compound 609]
Mus musculus, Shh Light II
  IC50: > 10000 nM

## Cc1ccc(-c2cn3nc(-c4ccc(C(=O)NO)cc4)ccc3n2)cc1NC(=O)C(C)(C)C [compound 588]
Mus musculus, Shh Light II
  IC50: 1050 nM

## COC(=O)c1cccc(-c2ccc3nc(-c4ccc(C)c(NC(=O)C(C)(C)C)c4)cn3n2)c1 [compound 583]
Mus musculus, Shh Light II
  IC50: 742 nM

## COC(=O)c1csc(-c2ccc3nc(-c4ccc(C)c(NC(=O)C(C)(C)C)c4)cn3n2)n1 [Example 446, methyl 2-(2-(4-methyl-3-pivalamidophenyl)imidazo[1,2-b]pyridazin-6-yl)thiazole-4-carboxylate]
Mus musculus, Shh Light II
  IC50: 1380 nM

## CC(C)(C)C(=O)Nc1cc(-c2cn3nc(-c4cccnc4N4CCOCC4)ccc3n2)ccc1C(F)(F)F [Example 335, N-(5-(6-(2-morpholinopyridin-3-yl)imidazo[1,2-b]pyridazin-2-yl)-2-(trifluoromethyl)phenyl)pivalamide]
Mus musculus, Shh Light II
  IC50: 1610 nM

## Cc1ccc(-c2cn3nc(-c4cccnc4C(F)(F)F)ccc3n2)cc1NC(=O)CCCCCCC(=O)O [Example 430, 8-(2-methyl-5-(6-(2-(trifluoromethyl)pyridin-3-yl)imidazo[1,2-b]pyridazin-2-yl)phenylamino)-8-oxooctanoic acid]
  IC50: 5430 nM

## Cc1ccc(-c2cn3nc(N4CCC(NCCCCCC(=O)NO)C4)ccc3n2)cc1NC(=O)C(C)(C)C (stereo not shown) [Example 418, N-hydroxy-6-(1-(2-(4-methyl-3-pivalamidophenyl)imidazo[1,2-b]pyridazin-6-yl)pyrrolidin-3-ylamino)hexanamide]
Mus musculus, Shh Light II
  IC50: 1390 nM

## Cc1ccc(-c2cn3nc(N)ccc3n2)cc1NC(=O)C(C)(C)C [compound 591, N-(5-(6-aminoimidazo[1,2-b]pyridazin-2-yl)-2-methylphenyl)pivalamide]
Mus musculus, Shh Light II
  IC50: 578 nM

## CC(C)(C)C(=O)Nc1cc(-c2cn3nc(N4CCC(N)CC4)ccc3n2)ccc1C(F)(F)F [Example 332, N-(5-(6-(4-aminopiperidin-1-yl)imidazo[1,2-b]pyridazin-2-yl)-2-(trifluoromethyl)phenyl)pivalamide]
Mus musculus, Shh Light II
  IC50: 698 nM

## CC(C)(C)C(=O)Nc1cc(-c2cn3nc(-c4cccc(S(C)(=O)=O)c4)ccc3n2)ccc1C(F)(F)F [Example 325, N-(5-(6-(3-(methylsulfonyl)phenyl)imidazo[1,2-b]pyridazin-2-yl)-2-(trifluoromethyl)phenyl)pivalamide]
Mus musculus, Shh Light II
  IC50: 740 nM

## Cc1ccc(-c2cn3nc(-c4c(C)nn(C)c4C)ccc3n2)cc1NC(=O)C(C)(C)C [compound 503]
Mus musculus, Shh Light II
  IC50: 330 nM

## Cc1ccc(-c2cn3nc(-c4ccc(-c5nnco5)cc4)ccc3n2)cc1NC(=O)C(C)(C)C [compound 539]
Mus musculus, Shh Light II
  IC50: 350 nM

## Cc1ccc(-c2cn3nc(NCc4cccc(C=CC(=O)NO)c4)ccc3n2)cc1NC(=O)C(C)(C)C [compound 614]
Mus musculus, Shh Light II
  IC50: 4370 nM

## CC(C)(C)C(=O)Nc1cc(-c2cn3nc(-c4cccnc4N)ccc3n2)ccc1C(F)(F)F [Example 344, N-(5-(6-(2-aminopyridin-3-yl)imidazo[1,2-b]pyridazin-2-yl)-2-(trifluoromethyl)phenyl)pivalamide]
Mus musculus, Shh Light II
  IC50: 8740 nM

## CCOC(=O)C=Cc1cccc(-c2ccc3nc(-c4ccc(C)c(NC(=O)C(C)(C)C)c4)cn3n2)c1 [compound 551]
Mus musculus, Shh Light II
  IC50: 364 nM

## CC(C)(C)C(=O)Nc1cc(-c2cn3nc(-c4cncc(N)c4)ccc3n2)ccc1C(F)(F)F [Example 343, N-(5-(6-(5-aminopyridin-3-yl)imidazo[1,2-b]pyridazin-2-yl)-2-(trifluoromethyl)phenyl)pivalamide]
Mus musculus, Shh Light II
  IC50: 340 nM

## Cc1ccc(-c2cn3nc(-c4ccc(C=CC(=O)O)cc4)ccc3n2)cc1NC(=O)C(C)(C)C [compound 555]
Mus musculus, Shh Light II
  IC50: 346 nM

## CC(C)(C)C(=O)Nc1cc(-c2cn3nc(NC4CCNCC4)ccc3n2)ccc1C(F)(F)F [Example 330, N-(5-(6-(piperidin-4-ylamino)imidazo[1,2-b]pyridazin-2-yl)-2-(trifluoromethyl)phenyl)pivalamide]
Mus musculus, Shh Light II
  IC50: 676 nM

## CC(=O)c1ccc(-c2ccc3nc(-c4ccc(C)c(NC(=O)C(C)(C)C)c4)cn3n2)cc1 [compound 522]
Mus musculus, Shh Light II
  IC50: 1300 nM

## Cc1ccc(-c2cn3nc(N4CCC(F)(F)C4)ccc3n2)cc1NC(=O)C(C)(C)C [Example 277, N-(5-(6-(3,3-difluoropyrrolidin-1-yl)imidazo[1,2-b]pyridazin-2-yl)-2-methylphenyl)pivalamide]
Mus musculus, Shh Light II
  IC50: 350 nM

## Cc1ccc(-c2cn3nc(NC(=O)c4cc(Cl)ccn4)ccc3n2)cc1NC(=O)C(C)(C)C [compound 613]
Mus musculus, Shh Light II
  IC50: 283 nM

## CC(C)(C)C(=O)Nc1cc(-c2cn3nc(N4CCC(N)C4)ccc3n2)ccc1C(F)(F)F (stereo not shown) [Example 319, N-(5-(6-(3-aminopyrrolidin-1-yl)imidazo[1,2-b]pyridazin-2-yl)-2-(trifluoromethyl)phenyl)pivalamide]
  IC50: 347 nM

## Cc1ccc(-c2cn3nc(-c4cncc(O)c4)ccc3n2)cc1NC(=O)C(C)(C)C [Example 405, N-(5-(6-(5-hydroxypyridin-3-yl)imidazo[1,2-b]pyridazin-2-yl)-2-methylphenyl)pivalamide]
Mus musculus, Shh Light II
  IC50: 1980 nM

## Cc1ccc(-c2cn3nc(-c4ccc(OCCCCCC(=O)NO)cc4C(F)(F)F)ccc3n2)cc1NC(=O)C(C)(C)C [Example 416, N-hydroxy-6-(4-(2-(4-methyl-3-pivalamidophenyl)imidazo[1,2-b]pyridazin-6-yl)-3-(trifluoromethyl)phenoxy)hexanamide]
Mus musculus, Shh Light II
  IC50: 253 nM

## Cc1ccc(-c2cn3nc(-c4ccc(C(=N)NN)cc4C(F)(F)F)ccc3n2)cc1NC(=O)C(C)(C)C [compound 586]
Mus musculus, Shh Light II
  IC50: 87 nM

## Cc1ccc(-c2cn3nc(-c4cccnc4C(F)(F)F)ccc3n2)cc1NC(=O)CCCCC(=O)NO [Example 440, N^1-hydroxy-N^6-(2-methyl-5-(6-(2-(trifluoromethyl)pyridin-3-yl)imidazo[1,2-b]pyridazin-2-yl)phenyl)adipamide]
Mus musculus, Shh Light II
  IC50: 4060 nM

## CC(C)(C)C(=O)Nc1cc(-c2cn3nc(N4CCC(N)C4)ccc3n2)ccc1C(F)(F)F (stereo not shown) [Example 318, N-(5-(6-(3-aminopyrrolidin-1-yl)imidazo[1,2-b]pyridazin-2-yl)-2-(trifluoromethyl)phenyl)pivalamide]
Mus musculus, Shh Light II
  IC50: 203 nM

## CCOC(=O)CCC(=O)Nc1cc(-c2cn3nc(-c4cccnc4C(F)(F)F)ccc3n2)ccc1C [Example 436, ethyl 4-(2-methyl-5-(6-(2-(trifluoromethyl)pyridin-3-yl)imidazo[1,2-b]pyridazin-2-yl)phenylamino)-4-oxobutanoate]
Mus musculus, Shh Light II
  IC50: 975 nM

## CC(C)(C)OC(=O)NC1CCN(c2ccc3nc(-c4ccc(C(F)(F)F)c(NC(=O)C(C)(C)C)c4)cn3n2)CC1 [Example 331, tert-butyl 1-(2-(3-pivalamido-4-(trifluoromethyl)phenyl)imidazo[1,2-b]pyridazin-6-yl)piperidin-4-ylcarbamate]
Mus musculus, Shh Light II
  IC50: 478 nM

## Cc1ccc(-c2cn3nc(-c4cccnc4C(F)(F)F)ccc3n2)cc1N(C)C(=O)C(C)(C)C [compound 514, N-methyl-N-(2-methyl-5-(6-(2-(trifluoromethyl)pyridin-3-yl)imidazo[1,2-b]pyridazin-2-yl)phenyl)pivalamide]
Mus musculus, Shh Light II
  IC50: 392 nM

## Cc1ccc(-c2cn3nc(Cl)ccc3n2)cc1NC(=O)C(C)(C)C#N [compound 620]
Mus musculus, Shh Light II
  IC50: 3200 nM

## Cc1ccc(-c2cn3nc(Cl)ccc3n2)cc1NS(=O)(=O)c1cccc(C=CC(=O)NO)c1 [compound 617]
Mus musculus, Shh Light II
  IC50: 8600 nM

## CCc1ccc(-c2cn3nc(-c4ccc(C(F)(F)F)nc4)ccc3n2)cc1NC(=O)C(C)(C)C [Example 338, N-(2-ethyl-5-(6-(6-(trifluoromethyl)pyridin-3-yl)imidazo[1,2-b]pyridazin-2-yl)phenyl)pivalamide]
Mus musculus, Shh Light II
  IC50: 398 nM

## Cc1ccc(-c2cn3nc(-c4cccnc4C(F)(F)F)ccc3n2)cc1NS(=O)(=O)c1cccc(C=CC(=O)Nc2ccccc2N)c1 [compound 624, N-(2-aminophenyl)-3-(3-(N-(2-methyl-5-(6-(2-(trifluoromethyl)pyridin-3-yl)imidazo[1,2-b]pyridazin-2-yl)phenyl)sulfamoyl)phenyl)acrylamide]
Mus musculus, Shh Light II
  IC50: 824 nM

## Cc1ccc(-c2cn3nc(-c4cccnc4C(F)(F)F)ccc3n2)cc1C#N [Example 480, 2-methyl-5-(6-(2-(trifluoromethyl)pyridin-3-yl)imidazo[1,2-b]pyridazin-2-yl)benzonitrile]
Mus musculus, Shh Light II
  IC50: 5190 nM

## CC(C)(C)C(=O)Nc1cc(-c2cn3nc(-c4ccccc4N)ccc3n2)ccc1C(F)(F)F [Example 345, N-(5-(6-(2-aminophenyl)imidazo[1,2-b]pyridazin-2-yl)-2-(trifluoromethyl)phenyl)pivalamide]
Mus musculus, Shh Light II
  IC50: 5490 nM

## CC(=O)c1cccc(-c2ccc3nc(-c4ccc(C)c(NC(=O)C(C)(C)C)c4)cn3n2)c1 [compound 527]
Mus musculus, Shh Light II
  IC50: 1050 nM

## Cc1ccc(-c2cn3nc(-c4cccc(C(=O)NOC5CCCCO5)c4)ccc3n2)cc1NC(=O)C(C)(C)C (stereo not shown) [compound 585]
Mus musculus, Shh Light II
  IC50: 925 nM

## CCOC(=O)C=Cc1cccc(S(=O)(=O)Nc2cc(-c3cn4nc(C=CC(=O)OCC)ccc4n3)ccc2C)c1 [compound 608]
Mus musculus, Shh Light II
  IC50: 2040 nM

## Cc1ccc(-c2cn3nc(-c4ccc(S(N)(=O)=O)cc4)ccc3n2)cc1NC(=O)C(C)(C)C [compound 534]
Mus musculus, Shh Light II
  IC50: 1450 nM

## CCOC(=O)C=Cc1cccc(C(=O)Nc2cc(-c3cn4nc(C=CC(=O)OCC)ccc4n3)ccc2C)c1 [compound 610]
Mus musculus, Shh Light II
  IC50: 465 nM

## Cc1ccc(-c2cn3nc(-c4cccc(C(=O)O)c4)ccc3n2)cc1NC(=O)C(C)(C)C [compound 528]
Mus musculus, Shh Light II
  IC50: 5850 nM

## Cc1ccc(-c2cn3nc(-c4cccc(F)c4Cl)ccc3n2)cc1NC(=O)C(C)(C)C [compound 619]
Mus musculus, Shh Light II
  IC50: 35 nM

## Cc1ccc(-c2cn3nc(-c4ccc(C(=O)N(C)C)cc4)ccc3n2)cc1NC(=O)C(C)(C)C [compound 524]
Mus musculus, Shh Light II
  IC50: 479 nM
